Patent publication US7928230B2, “Method for modulating GPR119 G protein-coupled receptor and selected compounds” (Bristol-Myers Squibb Company, priority 2007, dated 2011)
pEC50: −log10 of the molar value. Counter-ions that a name gives are not always drawn.

Molecular target: T1, human GPR119 (Homo sapiens, UniProt Q8TDV5)
T1 construct: expressed in transfected cells; host or cells: Flp-In-T-REx 293 cells, tetracycline-induced
T1 sequence (Q8TDV5 1-335): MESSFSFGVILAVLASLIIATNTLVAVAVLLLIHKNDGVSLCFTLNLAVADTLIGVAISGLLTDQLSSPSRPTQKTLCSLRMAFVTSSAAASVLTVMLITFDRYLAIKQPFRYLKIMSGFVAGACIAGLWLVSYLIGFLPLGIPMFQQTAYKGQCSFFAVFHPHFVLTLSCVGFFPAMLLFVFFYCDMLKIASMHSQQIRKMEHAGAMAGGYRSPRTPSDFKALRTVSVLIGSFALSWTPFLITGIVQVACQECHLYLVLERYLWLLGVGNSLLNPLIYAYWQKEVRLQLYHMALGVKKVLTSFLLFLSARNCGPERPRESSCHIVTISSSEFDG
Experiment: Human Tet-inducible cAMP assay
Type: cell-based
Conditions: Flp-In-T-REx 293 tetracycline inducible cells expressing GPR119; Hit Hunter cAMP kit; 1 hour at 37° C.; read-out: hGPR119 EC50
Procedure: The in vitro modulation of recombinant human GPR119 was determined as follows.
Human Tet-inducible cAMP Assay
Cell lines expressing GPR119 are generated using the Flp-In-T-REx 293 tetracycline inducible gene expression system are cultured in culture medium comprising the following components: DMFM#11965, 10% FBS, 2 mM L-glutamine, 200 ug/ml Hygromycin B, and 15 ug/ml blasticidin.
For cAMP assays, cells are plated on 96 well plates (e.g., BD Falcon: REF 353948, black side, clear bottom, TC surface) at a density of about 4.5×10^4 cells per well in growth medium containing 1.0 ug/ml tetracycline (1.0 mg/ml stock). The cells are then incubated for 48 hours at 37° C.
Following the incubation, the growth medium is removed from the wells and the wells rinsed (once) with the assay buffer included in the Hit Hunter cAMP kit (100 μl/well). Following the wash, 20 μl of assay buffer is added to each well, followed by addition of 10 μl of a 3× concentration compound working solution. The solution is then mixed. The final concentration range of compound is from about 10^−5M to about 10^−11M. The reagents are then incubated at 37° C. at 5% CO2 for 1 hour.
The manufacturer's protocol may be followed for cAMP determination. The Hit Hunter cAMP kit protocol is outlined for the HIT-T15 cAMP assays described above.
Compounds of the present invention were tested in the Human Tet-inducible cAMP assay described immediately above and the results shown in Table 4 below were obtained.

| pEC50 | SMILES |
| --- | --- |
| 7.06 | CCCc1cnc(N2CCC(Oc3ccn(-c4ccc(-n5cncn5)cc4)c(=O)c3)CC2)nc1 [Example 1, 1-(4-(1H-1,2,4-triazol-1-yl)phenyl)-4-(1-(5-propylpyrimidin-2-yl)piperidin-4-yloxy)pyridin-2(1H)-one, hydrochloride salt] |
| 5.28 | CC(C)OC(=O)N1CCC(Oc2ccn(-c3ccc(-n4cncn4)cc3)c(=O)c2)CC1 [Example 4, isopropyl 4-(1-(4-(1H-1,2,4-triazol-1-yl)phenyl)-2-oxo-1,2-dihydropyridin-4-yloxy)piperidine-1-carboxylate] |
| 7.03 | CCCc1cnc(N2CCC(Oc3ccn(-c4ccc(-n5ccnc5)cc4)c(=O)c3)CC2)nc1 [Example 2, 1-(4-(1H-imidazol-1-yl)phenyl)-4-(1-(5-propylpyrimidin-2-yl)piperidin-4-yloxy)pyridin-2(1H)-one, hydrochloride salt] |
| 6.69 | CCCc1cnc(N2CCC(Oc3ccn(-c4ccc(-c5ncco5)cc4)c(=O)c3)CC2)nc1 [Example 3, 1-(4-(oxazol-2-yl)phenyl)-4-(1-(5-propylpyrimidin-2-yl)piperidin-4-yloxy)pyridin-2(1H)-one] |
